Patent US20070116833A1, “High-Potency Sweetener Composition with Calcium and Compositions Sweetened Therewith” (THE COCA-COLA COMPANY, priority 2005, published 2007)

Assays:
[1] = assay type: physicochemical
Procedure: A solution of rebaudioside A (>97% pure by HPLC) was prepared in double distilled water (12.5 gm in 50 mL, 25% concentration) by stirring the mixture at 40° C. for 5 minutes. An amorphous form of rebaudioside A was formed by immediately using the clear solution for spray drying with the Lab-Plant spray drier SD-04 instrument (Lab-Plant Ltd., West Yorkshire, U.K.). The solution was fed through the feed pump into the nozzle atomizer which atomized it into a spray of droplets with the help of a constant flow of nitrogen/air. […] This dry powder (11-12 g, H2O 6.74%) was discharged continuously from the drying chamber and was collected in a bottle.

[2] = system: panel of experts in the sensory evaluation of foods and beverages; experiment: Sensory evaluation of sweetness linger by expert panel; assay type: in vivo; design: key: 0: no sweetness linger; 1: very slight sweetness linger; 2: slight sweetness linger; 3: moderate sweetness linger; 4: moderately high sweetness linger; 5: high sweetness linger; details: for sweetness linger: scale 0-5; for Sweetness Linger rating (defined for controls): ratings defined for the protocol, REBA control sample 500 ppm
Procedure: Sensory evaluation of the samples prepared in Example Set G was carried out under the following protocol, similar to that described hereinabove. In this test protocol, none of the samples were swallowed. All samples were expectorated and the mouth was rinsed with water after the tasting. Immediately upon sensing maximal sweetness, the sample was expectorated, the mouth was rinsed with water and the rate of sweetness decay (“Sweetness Linger”) was measured, where attention was focused on the sweetness 3-4 min after the water rinse. After sample tasting was complete, a salty oyster cracker was chewed followed by a water rinse, and at least 5 minutes followed before tasting the next sample. The sweetness linger was rated by a panel of experts in the sensory evaluation of foods and beverages using the following scale: 0=no sweetness linger, 1 =very slight sweetness linger, 2 slight sweetness linger, 3=moderate sweetness linger, 4 =moderately high sweetness linger, 5 high sweetness linger.
The “Sweetness Linger” rating for sucrose observed by this protocol is defined as 0. The Sweetness Linger of a 500 ppm of REBA control sample is defined as 5. Experimental samples were tasted by the same protocol, always allowing sufficient time between samples to ensure re-equilibration of the sensory system. Re-tasting of control samples during the course of the experiment was allowed and encouraged.
The comparison taste test was performed between two controls and addition of sweet taste improving additive on the onset and/or sweetness linger.
Sweet taste improving compositions were combined with a REBA solution to determine their effect on sweetness linger. Screening of the initial sample, or further dilutions, allowed identification of concentrations which were just above-threshold, herein defined as “near-threshold concentrations.” The near-threshold additive concentrations, a 6- to 100-fold higher additive concentration (depending on the off-taste intensity), and a mid-level additive concentration (halfway between the near-threshold and higher additive concentration) were evaluated to determine the effect on sweetness linger of a REBA solution. […]
Sensory evaluation using the protocol described in Example Set G then was used to evaluate the sweetness linger of the REBA solutions.

[3] = Rate of dissolution of rebaudioside A polymorphs in H2O; assay type: physicochemical

rebaudioside A [F]
solubility in water at room temperature [1]: > 35.0%

rebaudioside A
sweetness linger ([2]; Example Set G: 400 ppm REBA in citric acid/potassium citrate composition equivalent to that in a diet lemon-lime beverage, sweetness 3-4 min after water rinse): 5
sweetness linger ([2]; Example Set H: 500 ppm REBA (H41: 360 ppm) in carbon-treated water, phosphoric acid (75%) to pH 2.4-2.5): 5
Sweetness Linger rating (defined for controls) [2]: 5

rebaudioside A [Form 1]
Rate of dissolution in H2O at 25° C. [3]: Very low (<0.2%/ %/60 minutes

OC[C@H]1O[C@@](CO)(O[C@H]2O[C@H](CO)[C@@H](O)[C@H](O)[C@H]2O)[C@@H](O)[C@@H]1O [sugar, sucrose, reference compound]
Sweetness Linger rating (defined for controls) [2]: 0
